Biological target: T1, EGFR del746-750 T790M (Homo sapiens, UniProt P00533, DEL746-750/T790M)
T1 construct: purchased Carna Biosciences 08-528
Experiment: EGFR del746-750 T790M biochemical assay (Caliper mobility shift)
Conditions: 5 μM ATP, 30 min, room temperature; apparent Ki (Morrison) converted by Cheng-Prusoff, Km of ATP 2.1 μM; read-out: EGFR(T790M/d746-750) Ki

T1 sequence (P00533 with tags, fused parts or gaps DEL746-750/T790M limits assumed): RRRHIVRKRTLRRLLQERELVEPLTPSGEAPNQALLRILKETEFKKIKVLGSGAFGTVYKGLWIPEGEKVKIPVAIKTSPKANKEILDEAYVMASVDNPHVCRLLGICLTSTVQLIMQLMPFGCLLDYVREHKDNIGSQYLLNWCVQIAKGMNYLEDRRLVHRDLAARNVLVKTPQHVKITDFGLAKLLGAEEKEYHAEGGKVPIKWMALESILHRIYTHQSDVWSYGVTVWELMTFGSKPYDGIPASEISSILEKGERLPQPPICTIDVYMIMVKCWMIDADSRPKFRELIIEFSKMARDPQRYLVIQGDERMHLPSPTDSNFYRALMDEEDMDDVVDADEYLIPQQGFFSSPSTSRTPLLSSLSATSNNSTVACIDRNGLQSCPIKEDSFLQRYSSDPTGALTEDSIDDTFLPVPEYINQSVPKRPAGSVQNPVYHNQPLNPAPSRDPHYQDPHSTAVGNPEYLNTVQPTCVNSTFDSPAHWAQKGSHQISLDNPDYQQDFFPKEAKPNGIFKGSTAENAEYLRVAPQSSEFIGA

Q: With `CC(C)n1c(CO)nc2cnc(Nc3ccnc(N4CCC5(OCCO5)C(F)C4)n3)cc21` (stereo not shown) [Example 654] as the compound, how does the Ki read?
A: 36 nM

Q: `O=C1CC(n2c(CO)nc3cnc(Nc4ccnc(-c5cnn(S(=O)(=O)C6CC6)c5)n4)cc32)CN1` (stereo not shown) [Example 694] was tested. Which Ki did it give?
A: 709 nM

Q: With `CC(n1cc(C(=O)NC2CCOCC2)c2cnc(Nc3ccnc(-c4cnn(S(=O)(=O)C5CC5)c4)n3)cc21)C(F)(F)F` (stereo not shown) [Example 635, 6-(2-(1-(Cyclopropylsulfonyl)-1H-pyrazol-4-yl)pyrimidin-4-ylamino)-N-(tetrahydro-2H-pyran-4-yl)-1-(1,1,1-trifluoropropan-2-yl)-1H-pyrrolo[3,2-c]pyridine-3-carboxamide] as the compound, how does the Ki read?
A: 4.53 nM

Q: How did the Ki turn out when `CC(C)n1cnc2cnc(Nc3ccnc(-c4cnn(S(=O)(=O)C5CC5)c4)n3)cc21` [Example 97, N-(2-(1-(cyclopropylsulfonyl)-1H-pyrazol-4-yl)pyrimidin-4-yl)-1-isopropyl-1H-imidazo[4,5-c]pyridin-6-amine] was run?
A: 1.9 nM

Q: For `CCC(C)n1cc(C(=O)NC2CCOCC2)c2cnc(Nc3ccnc(N4CC[C@@H](O)[C@@H](F)C4)n3)cc21` (single isomer, unassigned) [Example 323], which Ki is on record?
A: 3.41 nM

Q: How did the Ki turn out when `COCc1nc2cnc(Nc3ccnc(-c4cnn(S(=O)(=O)C5CC5)c4)n3)cc2n1C(C)C` [Example 279, [2-(1-Cyclopropanesulfonyl-1H-pyrazol-4-yl)-pyrimidin-4-yl]-(1-isopropyl-2-methoxymethyl-1H-imidazo[4,5-c]pyridin-6-yl)amine] was run?
A: 6.87 nM

Q: For `CCC(C)n1cc(C(=O)NC2CCN(C3COC3)CC2)c2cnc(Nc3ccnc(N4CC[C@@H](OC)[C@@H](F)C4)n3)cc21` (single isomer, unassigned) [Example 325], which Ki is on record?
A: 3.35 nM

Q: For `COc1nc2cnc(Nc3ccnc(N4CCC(OC)CC4)n3)cc2n1C(C)C` [Example 11, (1-Isopropyl-2-methoxy-1H-imidazo[4,5-c]pyridin-6-yl)-[2-(4-methoxypiperidin-1-yl)pyrimidin-4-yl]amine], which Ki is on record?
A: 98.4 nM

Q: For `COC1(CO)CCN(c2nccc(Nc3cc4c(cn3)nc([C@@H](C)O)n4[C@@H](C)C(F)(F)F)n2)CC1` [Example 665], which Ki is on record?
A: 11.5 nM

Q: Which Ki does the source give for `Cc1cn[nH]c1-c1cn(C(C)C)c2cc(Nc3ccnc(-c4cnn(S(=O)(=O)C5CC5)c4)n3)ncc12` [Example 346, N-(2-(1-(cyclopropylsulfonyl)-1H-pyrazol-4-yl)pyrimidin-4-yl)-1-isopropyl-3-(4-methyl-1H-pyrazol-5-yl)-1H-pyrrolo[3,2-c]pyridin-6-amine] here?
A: 3.07 nM

Q: `Cc1nc2cnc(Nc3ccnc(N4CC[C@H]([S+](C)[O-])[C@H](F)C4)n3)cc2n1C(C)C` (mixture of isomers) [Example 618, [2-(±)-(cis-3-Fluoro-4-methanesulfinylpiperidin-1-yl)pyrimidin-4-yl]-(1-isopropyl-2-methyl-1H-imidazo[4,5-c]pyridin-6-yl)amine] was tested. Which Ki did it give?
A: 236 nM

Q: For `CC(C)n1c([C@@H](C)O)nc2cnc(Nc3ccnc(-c4cnn(S(=O)(=O)C5CC5)c4)n3)cc21` [Example 561, (R)-1-{6-[2-(1-Cyclopropanesulfonyl-1H-pyrazol-4-yl)pyrimidin-4-ylamino]-1-isopropyl-1H-imidazo[4,5-c]pyridin-2-yl}ethanol], which Ki is on record?
A: 1.73 nM

Q: How did the Ki turn out when `CS[C@H]1CCN(c2nccc(Nc3cc4c(cn3)nc(CO)n4C(C)C)n2)C[C@H]1F` (racemic) [Example 622, (±)-{6-[2-(cis-3-Fluoro-4-methylsulfanylpiperidin-1-yl)pyrimidin-4-ylamino]-1-isopropyl-1H-imidazo[4,5-c]pyridin-2-yl}methanol] was run?
A: 170 nM

Q: Which Ki does the source give for `COC1CCN(c2nccc(Nc3cc4c(cn3)c(C(=O)NCCn3ccnc3)cn4C(C)C)n2)CC1` [Example 63, N-(2-(1H-Imidazol-1-yl)ethyl)-1-isopropyl-6-(2-(4-methoxypiperidin-1-yl)pyrimidin-4-ylamino)-1H-pyrrolo[3,2-c]pyridine-3-carboxamide] here?
A: 10.1 nM

Q: `CC(C)n1c(CO)nc2cnc(Nc3ccnc(N4CC[C@H](O)[C@](C)(F)C4)n3)cc21` (racemic) [Example 645, (3RS,4SR)-3-Fluoro-1-(4-((2-(hydroxymethyl)-1-isopropyl-1H-imidazo[4,5-c]pyridin-6-yl)amino)pyrimidin-2-yl)-3-methylpiperidin-4-ol] was tested. Which Ki did it give?
A: 68.7 nM

Q: `Cc1nc2cnc(Nc3ccnc(N4CC[C@H](C#N)C4)n3)cc2n1C(C)C` [Example 679] was tested. Which Ki did it give?
A: 168 nM

Q: `CC(CC(F)(F)F)n1c(CO)nc2cnc(Nc3ccnc(-c4cnn(S(=O)(=O)C5CC5)c4)n3)cc21` (stereo not shown) [Example 696] was tested. Which Ki did it give?
A: 7.67 nM

Q: For `CO[C@H]1CCN(c2nccc(Nc3cc4c(cn3)c(-c3nn(CCO)cc3C)cn4C(C)C)n2)C[C@H]1F` [Example 348, 2-(3-(6-((2-((3R,4S)-3-Fluoro-4-methoxypiperidin-1-yl)pyrimidin-4-yl)amino)-1-isopropyl-1H-pyrrolo[3,2-c]pyridin-3-yl)-4-methyl-1H-pyrazol-1-yl)ethanol], which Ki is on record?
A: 19.6 nM

Q: How did the Ki turn out when `COC1CCN(c2nccc(Nc3cc4c(cn3)nc(C)n4C(C)C)n2)CC1(F)F` (racemic) [Example 528, (±)-[2-(3,3-Difluoro-4-methoxypiperidin-1-yl)pyrimidin-4-yl](1-isopropyl-2-methyl-1H-imidazo[4,5-c]pyridin-6-yl)amine] was run?
A: 43.3 nM

Q: How did the Ki turn out when `CCC(C)n1cc(C(=O)N[C@H]2CCOC[C@H]2F)c2cnc(Nc3ccnc(N4CC[C@@H](O)[C@@H](F)C4)n3)cc21` (mixture of isomers) [Example 637, 1-(sec-butyl)-6-((2-((3S,4R)-3-fluoro-4-hydroxypiperidin-1-yl)pyrimidin-4-yl)amino)-N-((3SR, 4SR)-3-fluorotetrahydro-2H-pyran-4-yl)-1H-pyrrolo[3,2-c]pyridine-3-carboxamide] was run?
A: 4.01 nM

Q: With `CC(C)n1c(CO)nc2cnc(Nc3ccnc(N4CCC5(CC4)CNC(=O)CO5)n3)cc21` [Example 693] as the compound, how does the Ki read?
A: 572 nM

Q: `CC(C)n1cc(-c2cn3c(n2)CNCC3)c2cnc(Nc3ccnc(-c4cnn(S(=O)(=O)C5CC5)c4)n3)cc21` [Example 442, N-(2-(1-(cyclopropylsulfonyl)-1H-pyrazol-4-yl)pyrimidin-4-yl)-1-isopropyl-3-(5,6,7,8-tetrahydroimidazo[1,2-a]pyrazin-2-yl)-1H-pyrrolo[3,2-c]pyridin-6-amine] was tested. Which Ki did it give?
A: 0.81 nM

Q: With `CC(n1cc(C(=O)NC2CCOCC2)c2cnc(Nc3ccnc(N4CCC(C)(O)CC4)n3)cc21)C(F)(F)F` (stereo not shown) [Example 636, 6-(2-(4-Hydroxy-4-methylpiperidin-1-yl)pyrimidin-4-ylamino)-N-(tetrahydro-2H-pyran-4-yl)-1-(1,1,1-trifluoropropan-2-yl)-1H-pyrrolo[3,2-c]pyridine-3-carboxamide] as the compound, how does the Ki read?
A: 14.4 nM

Q: Which Ki does the source give for `CO[C@@H]1CCN(c2nccc(Nc3cc4c(cn3)nc(CO)n4[C@@H](C)C(F)(F)F)n2)C[C@@H]1F` [Example 657] here?
A: 17.4 nM

Q: For `CC(C)n1c(CO)nc2cnc(Nc3ccnc(N4CC[C@H](O)[C@H](C)C4)n3)cc21` (racemic) [Example 631, (±)-(cis)-1-(4-(2-(Hydroxymethyl)-1-isopropyl-1H-imidazo[4,5-c]pyridin-6-ylamino)pyrimidin-2-yl)-3-methylpiperidin-4-ol], which Ki is on record?
A: 351 nM

Q: With `CCCC(C)n1c(CO)nc2cnc(Nc3ccnc(-c4cnn(S(=O)(=O)C5CC5)c4)n3)cc21` (stereo not shown) [Example 265, (6-(2-(1-(Cyclopropylsulfonyl)-1H-pyrazol-4-yl)pyrimidin-4-ylamino)-1-(pentan-2-yl)-1H-imidazo[4,5-c]pyridin-2-yl)methanol] as the compound, how does the Ki read?
A: 5.63 nM

Q: Which Ki does the source give for `CCC(C)n1cc(C(=O)NC2CCC(O)CC2)c2cnc(Nc3ccnc(-c4cnn(S(=O)(=O)C5CC5)c4)n3)cc21` (stereo not shown) [Example 705] here?
A: 2.37 nM

Q: With `Cc1nc2cnc(Nc3ccnc(N4CC[C@@H](O)C4)n3)cc2n1C(C)C` [Example 680] as the compound, how does the Ki read?
A: 395 nM

Q: Which Ki does the source give for `CCC(C)n1cc(C(=O)NC2CCOCC2)c2cnc(Nc3ccnc(N4CC[C@@H](OC)[C@@H](F)C4)n3)cc21` (single isomer, unassigned) [Example 375] here?
A: 3.41 nM

Q: For `Cc1nc2cnc(Nc3ccnc(N4CCC(F)CC4)n3)cc2n1C(C)C` [Example 591, [2-(4-Fluoropiperidin-1-yl)pyrimidin-4-yl]-(1-isopropyl-2-methyl-1H-imidazo[4,5-c]pyridin-6-yl)amine], which Ki is on record?
A: 55 nM

Q: For `CCNC(=O)c1cn(C(C)CC)c2cc(Nc3ccnc(N4CC[C@@H](O)[C@@H](F)C4)n3)ncc12` (single isomer, unassigned) [Example 370], which Ki is on record?
A: 4.02 nM

Q: For `C[C@H](n1c([C@@H](C)O)nc2cnc(Nc3ccnc(N4CC[C@H](O)[C@H](F)C4)n3)cc21)C(F)(F)F` [Example 289, (3R,4S)-3-Fluoro-1-{4-[2-((R)-1-hydroxyethyl)-1-((S)-2,2,2-trifluoro-1-methylethyl)-1H-imidazo[4,5-c]pyridin-6-ylamino]pyrimidin-2-yl}-piperidin-4-ol], which Ki is on record?
A: 3.35 nM

Q: Which Ki does the source give for `CO[C@H]1[C@@H]2CC[C@H]1CN(c1nccc(Nc3cc4c(cn3)nc(CO)n4C(C)C)n1)C2` [Example 273, (1-Isopropyl-6-((2-((1R,5R,8r)-8-methoxy-3-azabicyclo[3.2.1]octan-3-yl)pyrimidin-4-yl)amino)-1H-imidazo[4,5-c]pyridin-2-yl)methanol] here?
A: 23.7 nM

Q: How did the Ki turn out when `CC(C)n1c(CO)nc2cnc(Nc3ccnc(N4CCC(C(F)(F)F)CC4)n3)cc21` [Example 512, (1-Isopropyl-6-((2-(4-(trifluoromethyl)piperidin-1-yl)pyrimidin-4-yl)amino)-imidazo[4,5-c]pyridin-2-yl)methanol] was run?
A: 133 nM

Q: `CCC(C)n1cc(C(=O)NC2CCOCC2)c2cnc(Nc3ccnc(N4CCC(C)(O)CC4)n3)cc21` (racemic) [Example 638, 1-(sec-butyl)-6-((2-(4-hydroxy-4-methylpiperidin-1-yl)pyrimidin-4-yl)amino)-N-(tetrahydro-2H-pyran-4-yl)-1H-pyrrolo[3,2-c]pyridine-3-carboxamide] was tested. Which Ki did it give?
A: 14.9 nM

Q: How did the Ki turn out when `Cc1nc2cnc(Nc3ccnc(N4CCC(O)CC4)n3)cc2n1C(C)C` [Example 503, 1-(4-((1-Isopropyl-2-methyl-1H-imidazo[4,5-c]pyridin-6-yl)amino)pyrimidin-2-yl)piperidin-4-ol] was run?
A: 128 nM

Q: How did the Ki turn out when `C[C@H](O)c1nc2cnc(Nc3ccnc(N4CC[C@H](O)[C@H](F)C4)n3)cc2n1[C@@H](C)C(F)(F)F` [Example 686] was run?
A: 18.5 nM

Source: patent publication US9890152B2 (Genentech, Inc., priority 2012, dated 2018)
